# Reference: patent US9149038B2, “4-amino-6-(heterocyclic)picolinates and 6-amino-2-(heterocyclic)pyrimidine-4-carboxylates and their use as herbicides” (Dow AgroSciences LLC, priority 2013, dated 2015)
# Where two headings read alike, the source gives them in different places.
# System: Key Broadleaf and Grass Weed as well as Crop Species
# Assay: Post-Emergent Test I: postemergent herbicidal activity, visual phytotoxicity rating 10 days after treatment (Table 5)
# Assay type: in vivo
# Conditions: for pest or weed control at 3960 g/ha / pest or weed control at 4000 g/ha: post-emergence, 240 h, 10 days after application; for Visual Growth Reduction (%) 10 Days After Application ECHCG: barnyardgrass (Echinochloa crus-galli)
# Procedure: Herbicidal evaluations were made visually on a scale of 0 to 100 where 0 represents no activity and 100 represents complete plant death. Post-Emergent Test I: Seeds of test species were obtained from commercial suppliers and planted into a 5″-round pot containing soil-less media mix (Metro-Mix 360®, Sun Gro Horticulture). Postemergence treatments were planted 8-12 days (d) prior to application and cultured in a greenhouse equipped with supplemental light sources to provide a 16 h photoperiod at 24-29° C. All pots were surface irrigated. Approximately 10 milligrams (mg) of each compound were dissolved in 1.3 mL acetone-DMSO (97:3, volume per volume (v/v)) and diluted with 4.1 mL water-isopropanol-crop oil concentrate (78:20:2, v/v/v) containing 0.02% Triton X-155. Treatments were serial diluted with the above formulation solvent to provide 1.85, 0.926, 0.462 and 0.231 milligrams per milliliter (mg/mL) of test compound delivered in 2.7 mL/pot (roughly equivalent to 4.0, 2.0, 1.0, and 0.5 kg/ha, respectively). Formulated compounds were applied using a DeVilbiss® compressed air sprayer at 2-4 pounds per square inch (psi). Following treatment, pots were returned to the greenhouse for the duration of the experiment. All pots were sub-irrigated as needed to provide optimum growing conditions. All pots were fertilized one time per week by subirrigating with Peters Peat-Lite Special® fertilizer (20-10-20). Phytotoxicity ratings were obtained 10 days after treatment postemergence applications. All evaluations were made visually on a scale of 0 to 100 where 0 represents no activity and 100 represents complete plant death and are presented as indicated in Table 4.
# [1] = giant foxtail (Setaria faberi), 3.96 kg ai/ha, read-out: Visual Growth Reduction (%) 10 Days After Application SETFA
# [2] = ivyleaf morningglory (Ipomoea hederecea), 3.96 kg ai/ha, read-out: Visual Growth Reduction (%) 10 Days After Application IPOHE
# [3] = sunflower (Helianthus annuus), 3.96 kg ai/ha, read-out: Visual Growth Reduction (%) 10 Days After Application HELAN
# [4] = wild oats (Avena fatua), 3.96 kg ai/ha, read-out: Visual Growth Reduction (%) 10 Days After Application AVEFA
# [5] = giant foxtail (Setaria faberi), 4 kg ai/ha, read-out: Visual Growth Reduction (%) 10 Days After Application SETFA
# [6] = ivyleaf morningglory (Ipomoea hederecea), 4 kg ai/ha, read-out: Visual Growth Reduction (%) 10 Days After Application IPOHE
# [7] = sunflower (Helianthus annuus), 4 kg ai/ha, read-out: Visual Growth Reduction (%) 10 Days After Application HELAN
# [8] = wild oats (Avena fatua), 4 kg ai/ha, read-out: Visual Growth Reduction (%) 10 Days After Application AVEFA
SMILES,pest or weed control at 3960 g/ha [1] [%],pest or weed control at 3960 g/ha [2] [%],pest or weed control at 3960 g/ha [3] [%],pest or weed control at 3960 g/ha [4] [%],Visual Growth Reduction (%) 10 Days After Application ECHCG (4 kg ai/ha),pest or weed control at 4000 g/ha [5] [%],pest or weed control at 4000 g/ha [6] [%],pest or weed control at 4000 g/ha [7] [%],pest or weed control at 4000 g/ha [8] [%],Visual Growth Reduction (%) 10 Days After Application ECHCG (3.96 kg ai/ha)
Nc1c(F)c(-c2cccc3c2OC(F)(F)O3)nc(C(=O)O)c1Cl [Compound 74],0 to 29,60 to 74,95 to 100,0 to 29,,,,,,
Nc1c(Cl)c(C(=O)O)nc(-c2cc3c(cc2F)OC(F)(F)O3)c1Cl [Compound 3],,,,,C (75-84),75 to 84,75 to 84,75 to 84,75 to 84,
COC(=O)c1nc(-c2cccc3c2OC(F)(F)O3)c(F)c(N)c1Cl [Compound 73],0 to 29,75 to 84,95 to 100,0 to 29,,,,,,G (0-29)
Nc1c(Cl)c(C(=O)O)nc(-c2ccc3c(c2F)OC(F)(F)O3)c1Cl [Compound 5],,,,,G (0-29),75 to 84,95 to 100,95 to 100,0 to 29,
"COC(=O)c1nc(-c2cccc3c2OCO3)c(F)c(N)c1Cl [Compound 71, Methyl 4-amino-6-(benzo[d][1,3]dioxol-4-yl)-3-chloro-5-fluoropicolinate]",,,,,G (0-29),0 to 29,75 to 84,95 to 100,0 to 29,
"Nc1c(F)c(-c2cccc3c2OCO3)nc(C(=O)O)c1Cl [Compound 72, 4-Amino-6-(benzo[d][1,3]dioxol-4-yl)-3-chloro-5-fluoropicolinic acid]",,,,,G (0-29),0 to 29,0 to 29,95 to 100,0 to 29,
